Experimental data from PMC1790865, “Plant Carbohydrate Scavenging through TonB-Dependent Receptors: A Feature Shared by Phytopathogenic and Aquatic Bacteria” (PLoS ONE, 2007).

Legend:
[1] = biological target: T1, SuxA (XCC3358 TonB-dependent receptor) (Xanthomonas campestris, UniProt Q8P5I3); experiment: […]sucrose concentration-dependent uptake in whole wild-type cells (Scatchard, high-affinity phase); uptake lost in suxA deletion mutant and restored by complementation; format: cell-based
T1 construct: gene fyuA
T1 sequence (Q8P5I3 entry or part of it): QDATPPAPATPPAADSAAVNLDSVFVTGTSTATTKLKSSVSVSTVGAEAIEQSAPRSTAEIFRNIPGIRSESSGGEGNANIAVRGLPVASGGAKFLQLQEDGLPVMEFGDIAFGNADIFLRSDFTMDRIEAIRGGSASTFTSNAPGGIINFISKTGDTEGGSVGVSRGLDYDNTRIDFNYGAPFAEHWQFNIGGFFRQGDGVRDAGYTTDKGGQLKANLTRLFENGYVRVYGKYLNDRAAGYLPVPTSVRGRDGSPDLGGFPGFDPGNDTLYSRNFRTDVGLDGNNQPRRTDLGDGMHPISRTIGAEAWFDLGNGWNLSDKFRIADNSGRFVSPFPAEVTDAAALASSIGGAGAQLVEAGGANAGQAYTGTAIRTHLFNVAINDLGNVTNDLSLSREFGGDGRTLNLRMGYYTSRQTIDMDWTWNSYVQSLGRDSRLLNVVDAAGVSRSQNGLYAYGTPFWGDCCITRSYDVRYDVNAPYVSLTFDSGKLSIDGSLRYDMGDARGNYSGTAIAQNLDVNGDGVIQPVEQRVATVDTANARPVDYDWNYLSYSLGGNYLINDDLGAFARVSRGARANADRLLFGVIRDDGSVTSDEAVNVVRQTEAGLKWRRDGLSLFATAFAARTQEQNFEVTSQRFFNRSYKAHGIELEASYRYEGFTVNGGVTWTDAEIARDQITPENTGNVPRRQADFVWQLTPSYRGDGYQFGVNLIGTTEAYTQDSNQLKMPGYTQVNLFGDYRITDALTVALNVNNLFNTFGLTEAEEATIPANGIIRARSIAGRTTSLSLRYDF

[2] = biological target: T2, SuxC (XCC3357 inner membrane sugar transporter) (Xanthomonas campestris, UniProt Q8P5I4); experiment: […]sucrose concentration-dependent uptake in whole wild-type cells (Scatchard, slow phase); uptake lost in suxC insertion mutant; format: cell-based
T2 construct: gene suc1
T2 sequence (Q8P5I4 entry or part of it): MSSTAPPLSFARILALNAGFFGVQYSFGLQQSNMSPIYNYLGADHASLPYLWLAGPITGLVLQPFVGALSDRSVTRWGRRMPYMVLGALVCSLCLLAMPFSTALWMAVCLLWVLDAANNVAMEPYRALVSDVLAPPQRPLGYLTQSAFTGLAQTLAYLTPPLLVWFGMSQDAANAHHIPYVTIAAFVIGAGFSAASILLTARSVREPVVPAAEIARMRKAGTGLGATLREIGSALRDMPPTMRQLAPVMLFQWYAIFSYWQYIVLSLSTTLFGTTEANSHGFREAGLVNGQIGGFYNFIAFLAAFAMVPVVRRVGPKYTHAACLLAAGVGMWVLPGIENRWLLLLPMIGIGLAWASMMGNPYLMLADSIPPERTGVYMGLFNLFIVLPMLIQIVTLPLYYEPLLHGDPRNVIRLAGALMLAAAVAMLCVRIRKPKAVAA

Work on OC[C@H]1O[C@@](CO)(O[C@H]2O[C@H](CO)[C@@H](O)[C@H](O)[C@H]2O)[C@@H](O)[C@@H]1O [sucrose] yielded a Kd [1] of 33 nM and a Kd [2] of 590 nM.
